The values that follow come from patent US4499083A, “3-O-Demethyl derivatives of the istamycin B series of compounds” (Zaidan Hojin Biseibutsu Kagaku Kenkyu Kai, priority 1980, dated 1985).

Data set [1] has as its system Gram-negative and Gram-positive bacteria. The data set can be described thus: Antibacterial activity, overall statement. Type of data set: cell-based. The method, then:
The antibacterial spectra of 3-O-demethylistamycin B.sesquicarbonate and 3-O-demethyl-2"-N-formimidoylistamycin B.disulphate.trihydrate are shown in Table 2, along with that of istamycin B for comparison purposes.
*^1 Determined according to a standard serial dilution method on
nutrient agar plates which were incubated at 37° C. for 17 hours.

Another data set can be described thus: in vivo. The following applies: mouse, iv.
The next data set concerns mice. The data set can be described thus: Acute toxicity by intravenous injection in mice.
For another data set, the system named is Pseudomonas aeruginosa. The following applies: relative to istamycin A; earlier filings; cited from earlier work.

For `CNCC1CCC(N)C(OC2C(N)CC(O)C(NC)C2O)O1` (stereo not shown) [3-O-Demethylistamycin BO], the “antibacterial activity (in words)” value in data set [1] was “poor antibacterial activity”. This compound also returned an MTD in the data set “in vivo” of 160 mg/kg. Moreover, the “toxicity (in words)” value in the data set on mice is recorded as “low toxicity”.

On to di-N^6',O^3 -demethylistamycin A, for which the “antibacterial activity against Pseudomonas aeruginosa compared with istamycin A” value with Pseudomonas aeruginosa is “significantly higher than that of istamycin A”.
